Assays:
[1] = Solubility of compound in acetonitrile/water; type: physicochemical
[2] = Stability of compound assessed as compound degradation under dark condition measured after 20 days by 1H-NMR analysis; type: physicochemical; conditions: time 20 day; read-out: Drug degradation

- solubility [1]: Soluble
- degraded at 480 h [2]: 6%
Compound: C=CCCCCCCCCOC(=O)/C=C/c1cccc(C(C)(C)C)c1O
